# Results from ChEMBL document CHEMBL5131502, “Improving the treatment of Parkinson's disease: Structure-based development of novel 5-HT2A receptor antagonists/inverse agonists” (Eur J Med Chem, 2022).
# Active and inactive are the calls of the source. The calls are words filed in the database; no cut-off is given here.
# Tests used:
# [1] = target: T1, 5-hydroxytryptamine receptor 2A (Homo sapiens, UniProt P28223); assay: Antagonist activity at 5-HT2A receptor (unknown origin) expressed in CHO-K1 cells assessed as reduction in intracellular Ca2+ mobilization incubated for 15 mins by FLIPR assay; assay type: functional, cell-based
# [2] = target: T1, 5-hydroxytryptamine receptor 2A; assay: Inverse agonist activity at 5-HT2A receptor (unknown origin) expressed in mouse NIH3T3 cells using o-nitrophenyl-D-galacto pyranoside incubated for 120 hrs; assay type: functional, cell-based
# Rattus norvegicus [3] = assay: Antiparkinson's activity in rat assessed as reduction in DOI-induced head-twitching at 1.5 to 6 micromol/kg, IG measured after 1 hr; assay type: functional, organism-based; conditions: dose 1.5-6 µmol/kg
# Rattus norvegicus [4] = assay: Antiparkinson's activity in rat assessed as reduction of DOI-induced head-twitching at 6 micromol/kg, IG measured after 1 hr; assay type: functional, organism-based; conditions: dose 6.0 µmol/kg
# [5] = target: T1, 5-hydroxytryptamine receptor 2A; assay: Potency index, ratio of pimavanserin IC50 to test compound IC50 for antagonist activity at 5-HT2A receptor (unknown origin) expressed in CHO-K1 cells assessed as reduction in intracellular Ca2+ mobilization incubated for 15 mins by FLIPR assay; assay type: functional, cell-based
# [6] = target: T1, 5-hydroxytryptamine receptor 2A; assay: Potency index, ratio of pimavanserin IC50 to test compound IC50 for inverse agonist activity at 5-HT2A receptor (unknown origin) expressed in mouse NIH3T3 cells using o-nitrophenyl-D-galacto pyranoside incubated for 120 hrs; assay type: cell-based
# [7] = Metabolic stability in Sprague-Dawley rat liver microsomes assessed as compound remaining at 100 uM […] followed by NADPH addition by LC/MS analysis; assay type: ADME, Microsome; conditions: read-out: Stability
# [8] = Metabolic stability in Sprague-Dawley rat liver microsomes assessed as half life at 100 uM preincubated for 10 mins followed by NADPH addition by LC/MS analysis; assay type: ADME, Microsome
# [9] = Metabolic stability in human liver microsomes assessed as half life at 100 uM preincubated for 10 mins followed by NADPH addition by LC/MS analysis; assay type: ADME, Microsome
# [10] = Metabolic stability in Sprague-Dawley rat liver microsomes assessed as intrinsic clearance at 100 uM preincubated for 10 mins followed by NADPH addition by LC/MS analysis; assay type: ADME, Microsome; conditions: read-out: CLH
# [11] = Metabolic stability in human liver microsomes assessed as intrinsic clearance at 100 uM preincubated for 10 mins followed by NADPH addition by LC/MS analysis; assay type: ADME, Microsome; conditions: read-out: CLH
# [12] = Metabolic stability in human liver microsomes assessed as compound remaining at 100 uM […] followed by NADPH addition by LC/MS analysis; assay type: ADME, Microsome; conditions: read-out: Stability
# [13] = target: Voltage-gated inwardly rectifying potassium channel KCNH2 (Homo sapiens, UniProt Q12809); assay: Inhibition of hERG potassium channel expressed in CHO cells at -80 mV holding potential by whole cell patch clamp assay; assay type: toxicity, cell-based
# Sequence of Voltage-gated inwardly rectifying potassium channel KCNH2 (Q12809 whole entry): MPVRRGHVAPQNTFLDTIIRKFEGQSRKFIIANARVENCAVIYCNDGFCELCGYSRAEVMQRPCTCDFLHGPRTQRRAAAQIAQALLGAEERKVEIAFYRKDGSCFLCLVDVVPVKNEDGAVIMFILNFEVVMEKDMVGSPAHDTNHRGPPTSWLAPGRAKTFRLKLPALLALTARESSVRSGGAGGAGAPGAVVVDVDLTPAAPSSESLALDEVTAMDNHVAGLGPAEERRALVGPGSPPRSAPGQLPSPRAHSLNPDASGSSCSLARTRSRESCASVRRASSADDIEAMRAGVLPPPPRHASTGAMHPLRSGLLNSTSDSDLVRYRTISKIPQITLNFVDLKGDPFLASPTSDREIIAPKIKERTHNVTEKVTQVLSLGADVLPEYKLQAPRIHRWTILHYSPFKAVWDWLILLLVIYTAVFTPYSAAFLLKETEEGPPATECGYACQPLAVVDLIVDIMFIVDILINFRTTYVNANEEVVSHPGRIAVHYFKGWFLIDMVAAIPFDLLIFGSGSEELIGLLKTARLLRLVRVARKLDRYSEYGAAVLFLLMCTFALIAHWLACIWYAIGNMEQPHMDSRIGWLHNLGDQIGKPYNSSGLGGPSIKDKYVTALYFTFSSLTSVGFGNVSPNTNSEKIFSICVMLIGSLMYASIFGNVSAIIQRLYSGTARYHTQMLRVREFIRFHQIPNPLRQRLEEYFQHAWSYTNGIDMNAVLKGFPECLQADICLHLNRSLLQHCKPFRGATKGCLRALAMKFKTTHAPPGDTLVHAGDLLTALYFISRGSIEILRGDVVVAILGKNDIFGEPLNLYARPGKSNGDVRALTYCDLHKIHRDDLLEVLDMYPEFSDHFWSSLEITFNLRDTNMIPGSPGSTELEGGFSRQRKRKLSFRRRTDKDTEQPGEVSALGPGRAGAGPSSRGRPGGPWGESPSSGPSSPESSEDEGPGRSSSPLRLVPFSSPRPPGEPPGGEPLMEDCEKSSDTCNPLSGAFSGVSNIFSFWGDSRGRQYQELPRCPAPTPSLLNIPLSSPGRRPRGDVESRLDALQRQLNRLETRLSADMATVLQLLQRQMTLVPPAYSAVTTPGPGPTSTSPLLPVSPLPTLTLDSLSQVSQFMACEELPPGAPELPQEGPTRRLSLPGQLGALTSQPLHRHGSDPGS
# T1 sequence (P28223 whole entry): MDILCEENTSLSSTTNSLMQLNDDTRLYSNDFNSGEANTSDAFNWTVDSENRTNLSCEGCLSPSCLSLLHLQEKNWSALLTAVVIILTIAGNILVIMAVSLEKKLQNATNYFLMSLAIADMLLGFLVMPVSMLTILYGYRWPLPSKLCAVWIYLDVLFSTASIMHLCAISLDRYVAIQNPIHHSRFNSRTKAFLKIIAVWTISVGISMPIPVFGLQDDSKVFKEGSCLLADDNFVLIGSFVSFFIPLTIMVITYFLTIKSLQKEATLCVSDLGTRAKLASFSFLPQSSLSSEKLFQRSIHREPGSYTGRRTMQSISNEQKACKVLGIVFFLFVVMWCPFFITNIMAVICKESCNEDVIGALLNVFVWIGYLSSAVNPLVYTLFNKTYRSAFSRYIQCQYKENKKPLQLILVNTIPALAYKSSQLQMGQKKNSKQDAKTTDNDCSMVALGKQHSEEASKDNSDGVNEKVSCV
SMILES,IC50 [1] [nM],IC50 [2] [nM],also measured
CN1CCC(N(Cc2ccc(F)cn2)C(=O)NCc2ccc(OCC(F)(F)F)c(Br)c2)CC1,12,8.85,
CN1CCC(N(Cc2ccc(F)cn2)C(=O)NCc2ccc(OC(F)(F)C(F)(F)F)cc2)CC1,33.4,,
CC(C)CCc1ccc(CNC(=O)N(Cc2ccc(F)cn2)C2CCN(C)CC2)cc1,67.2,,
CN1CCC(N(Cc2ccc(F)cn2)C(=O)NCc2ccc(OCC(F)(F)F)c(C(F)(F)F)c2)CC1,27.3,30.5,
CN1CCC(N(Cc2ccc(F)cn2)C(=O)NCc2ccc(CCC(F)(F)F)cc2)CC1,18.3,872,
CN1CCC(N(Cc2ccc(F)cn2)C(=O)NCc2ccc(OCC(F)(F)F)cc2)CC1,,,Activity (Rattus norvegicus [3]): Active
CC(C)COc1ccc(CNC(=O)N(Cc2ccc(F)cc2)C2CCN(C)CC2)cc1,,,Activity (Rattus norvegicus [4]): Active
CC(C)COc1ccc(CNC(=O)N(Cc2ccc(F)cn2)C2CCN(C)CC2)cc1,,,Ratio IC50 [5]: 3; Ratio IC50 [6]: 2
CN1CCC(N(Cc2ccc(F)cn2)C(=O)NCc2ccc(OCCCF)cc2)CC1,1.93,3.05,remaining at 100 µM [7]: 80.4%; half-life at 100 µM [8]: > 3.1 h; half-life at 100 µM [9]: > 3.1 h; CLint scaled at 100 µM [10]: < 13.4 mL/min/kg; CLint scaled at 100 µM [11]: < 6.7 mL/min/kg; remaining at 100 µM [12]: 87.8%
CC(C)c1cc2cc(CNC(=O)N(Cc3ccc(F)cn3)C3CCN(C)CC3)ccc2o1,,64.9,
Cc1noc(C)c1CN(C(=O)NCc1ccc(OCC(C)C)cc1)C1CCN(C)CC1,> 500,> 500,
CN1CCC(N(Cc2ccc(F)cn2)C(=O)NCc2ccc3c(c2)CC(C)(C)O3)CC1,,,remaining at 100 µM [7]: 55%; IC50 [13]: 3610 nM; half-life at 100 µM [8]: 1.06 h; half-life at 100 µM [9]: 1.75 h; CLint scaled at 100 µM [10]: 37.1 mL/min/kg; CLint scaled at 100 µM [11]: 11.9 mL/min/kg; remaining at 100 µM [12]: 66.8%
CC(C)COc1ccc(CNC(=O)N(Cc2ccc(F)nn2)C2CCN(C)CC2)cc1,,> 500,
CN1CCC(N(Cc2ccc(F)cn2)C(=O)NCc2ccc3c(c2)CCC(C)(C)O3)CC1,,127,
CN1CCC(N(Cc2ccc(F)cn2)C(=O)NCc2ccc(OCC(F)(F)F)c(Cl)c2)CC1,125,134,

# More lines, main results first:
IC50 [1] [nM],IC50 [2] [nM],SMILES,also measured
252,86.4,CC(C)COc1ccc(CNC(=O)N(Cc2ccc(F)cc2)C2CCN(CC(=O)N(C)C)CC2)cc1,
139,159,CC(C)COc1ccc(CNC(=O)N(Cc2ccc(F)cc2)C2CC(N(C)C)C2)cc1 (centres undefined),
> 500,> 500,CC(C)COc1ccc(CNC(=O)N(Cc2cn[nH]c2)C2CCN(C)CC2)cc1,
26.4,8.3,CC(C)Cc1ccc(CNC(=O)N(Cc2ccc(F)cn2)C2CCN(C)CC2)cc1,
110,101,CC(C)COc1ccc(CNC(=O)N(Cc2ccc(F)cc2)C2CCC(N(C)C)C2)cc1 (centres undefined),
> 500,> 500,CC(C)COc1ccc(CNC(=O)N(Cc2cccc3sccc23)C2CCN(C)CC2)cc1,Ratio IC50 [5]: > 15; Ratio IC50 [6]: > 10
43.2,,CC(C)COc1ccc(CNC(=O)N(Cc2ncc(F)cc2F)C2CCN(C)CC2)cc1,
> 500,> 500,CC(C)COc1ccc(CNC(=O)N(Cc2cccc3[nH]cnc23)C2CCN(C)CC2)cc1,Ratio IC50 [5]: > 15; Ratio IC50 [6]: > 10
> 500,> 500,CC(C)COc1ccc(CNC(=O)N(Cc2ccc(F)cc2)C2CCCC(N(C)C)C2)cc1 (centres undefined),
> 500,> 500,CC(C)COc1ccc(CNC(=O)N(Cc2ccc(F)nc2)C2CCN(C)CC2)cc1,
75.4,> 500,CC(C)COc1ccc(CNC(=O)N(Cc2ccc(F)cc2)C2CCN(CCN(C)C)CC2)cc1,
